# Where a name gives a salt, the structure may show the parent alone.
# How the values were obtained:
# [1] = combination of in vitro mouse lymphoma, chromosomal aberration, and micronucleus tests; cited from earlier work
# γ-H2AX in HepG2 cells = assay: γ-H2AX MS assay, dose-effect relationship in HepG2 cells; conditions: for Genotoxicity in γ-H2AX MS assay: tested concentration 1 mM
# Protocol: Human hepatoblastoma cells (HepG2) were cultivated in DMEM medium under standard conditions (37°C in a 5% CO2 atmosphere). The culturing medium was added with 10% FBS, 100 U/mL penicillin and 100 μg/mL streptomycin.
# In accordance to our previous study, cells were exposed to the chemotherapeutic agent by adding a proper volume of chemotherapeutic agent stock solution to the fresh medium without serum. Controls were treated with DMSO (0.1%) in medium. Independent biological experiments with three technical replicates were conducted.
# The cells were then treated with different chemotherapy agents in serum-free medium. For a dose-effect relationship experiment, cells were exposed to each agent at either of three concentrations with a 10-fold increase for 24 h. For the time-effect relationship experiment of nine tested chemotherapy agents, cells were exposed to selected chemotherapy agents at 0.5, 1, 2, 4, 8, 12, and 24 h, with the concentration of 100 μM. Independent biological experiments with three technical replicates were performed.
# The quantification of γ-H2AX was carried out according to the previous report ([Qu et al., 2021]). In short, the cell clumps were collected after a certain period of cell culture and histones were obtained by acid extraction. After nuclear isolation, histone extraction, trypsin digestion in the solution, and desalting, the peptide sample from the carboxy terminus of H2AX was analyzed. LC–MS/MS analysis was conducted using a QTRAP 5500 (AB Sciex, Framingham, United States) with an ACQUITY UPLC system (Waters Co., Manchester, United Kingdom). Chromatographic separation was carried out with an ACQUITY UPLC BEH C18 column (100 mm × 2.1 mm, 1.7 μm). The column temperature was maintained at 40°C. A 10 μL sample aliquot was injected for analysis. Mobile phases A and B were 0.1% FA in distilled H2O and acetonitrile, respectively. […] The eluent composition was maintained for 2 min, after which the system returned to 1% B and was re-equilibrated for 2 min. The eluates in the first 1 min were switched to waste to prevent contaminating the ion source. The electrospray ionization source was operated in positive mode using nitrogen as the nebulizing gas. All experiments were performed independently in at least triplicate.
# To this end, we firstly examined the cytotoxicity of 34 chemotherapy agents, all of which were already well classified in terms of diverse characteristics. These tested chemotherapy agents were serially diluted for exposure to check the effects on cell viability.
SMILES,In vitro assays (genotoxicity) [1],"maximum γ-H2AX value within the selected concentration range (γ-H2AX in HepG2 cells; human, 24 h)",also measured
O=c1[nH]cc(F)c(=O)[nH]1 [5-fluorouracil],+,5.2,
Sc1ncnc2nc[nH]c12 [6-mercaptopurine],+,5.82,
CCC1(c2ccc(N)cc2)CCC(=O)NC1=O (stereo not drawn) [Aminoglutethimide],−,2.9,
CC(C)(C#N)c1cc(Cn2cncn2)cc(C(C)(C)C#N)c1 [Anastrozole],−,,
N.N.O=C([O-])C1(C(=O)[O-])CCC1.[Pt+2] [Carboplatin],+,,"maximum γ-H2AX value within the selected concentration range (γ-H2AX in HepG2 cells; HepG2 cells, 24 h): 7.2; γ-H2AX MEC/MS (minimum effective concentration) (γ-H2AX in HepG2 cells; HepG2 cells, 24 h exposure): ↑(100) µM; γ-H2AX MEC/MS (minimum effective concentration) (γ-H2AX in HepG2 cells; HepG2 cells, 24 h exposure, listed as carboplatin): 100 µM"
CCCCCCNC(=O)n1cc(F)c(=O)[nH]c1=O [Carmofur],+,6.3,
O=P1(N(CCCl)CCCl)NCCCO1 (stereo not drawn) [Cyclophosphamide],+,,"maximum γ-H2AX value within the selected concentration range (γ-H2AX in HepG2 cells; HepG2 cells, 24 h): 7.4; Genotoxicity in γ-H2AX MS assay (γ-H2AX in HepG2 cells; HepG2 cells, 24 h): genotoxic; γ-H2AX MEC/MS (minimum effective concentration) (γ-H2AX in HepG2 cells; HepG2 cells, 24 h exposure): ↑(1000) µM"
CN(C)/N=N/c1[nH]cnc1C(N)=O [Dacarbazine],+,5.8,
COc1cccc2c1C(=O)c1c(O)c3c(c(O)c1C2=O)C[C@@](O)(C(=O)CO)C[C@@H]3O[C@H]1C[C@H](N)[C@@H](O)[C@H](C)O1 [Epirubicin hydrochloride],+,18,"γ-H2AX MEC/MS (minimum effective concentration) (γ-H2AX in HepG2 cells; human, 24 h): 0.01 µM"
COc1cc([C@@H]2c3cc4c(cc3[C@@H](O[C@@H]3O[C@@H]5CO[C@@H](C)O[C@H]5[C@H](O)[C@H]3O)[C@H]3COC(=O)[C@H]23)OCO4)cc(OC)c1O [Etoposide],+,,
C=C1C[C@@H]2[C@H](CC[C@]3(C)C(=O)CC[C@@H]23)[C@@]2(C)C=CC(=O)C=C12 [Exemestane],−,3.1,
C[C@]12CCC(=O)C(O)=C1CC[C@@H]1[C@@H]2CC[C@]2(C)C(=O)CC[C@@H]12 [Formestane],−,,"maximum γ-H2AX value within the selected concentration range (γ-H2AX in HepG2 cells; HepG2 cells, 24 h): 3.2; Genotoxicity in γ-H2AX MS assay (γ-H2AX in HepG2 cells; HepG2 cells, 24 h): none of the selected antitumor hormones exhibited genotoxicity"
NC(=O)NO [Hydroxyurea],+,,MEC in γ-H2AX MS assay (γ-H2AX in HepG2 cells): 1 mM
O=P1(NCCCl)OCCCN1CCCl (stereo not drawn) [Ifosfamide],,,"γ-H2AX MEC/MS (minimum effective concentration) (γ-H2AX in HepG2 cells; HepG2 cells, 24 h exposure): ↑(1000) µM"
N#Cc1ccc(C(c2ccc(C#N)cc2)n2cncn2)cc1 [Letrozole],−,3.1,
O=C1[O][Pt]2([NH][C@@H]3CCCC[C@H]3[NH]2)[O]C1=O [Oxaliplatin],+,,"maximum γ-H2AX value within the selected concentration range (γ-H2AX in HepG2 cells; HepG2 cells, 24 h): 7.51; γ-H2AX MEC/MS (minimum effective concentration) (γ-H2AX in HepG2 cells; HepG2 cells, 24 h exposure): ↑(100) µM; γ-H2AX MEC/MS (minimum effective concentration) (γ-H2AX in HepG2 cells; HepG2 cells, 24 h exposure, listed as oxaliplatin): 100 µM"
CC(=O)O[C@H]1C(=O)[C@@]2(C)[C@H]([C@H](OC(=O)c3ccccc3)[C@]3(O)C[C@H](OC(=O)[C@H](O)[C@@H](NC(=O)c4ccccc4)c4ccccc4)C(C)=C1C3(C)C)[C@]1(OC(C)=O)CO[C@@H]1C[C@@H]2O [Paclitaxel],,,"Variation of γ-H2AX (γ-H2AX in HepG2 cells; human, 24 h): no variations of γ-H2AX"
CC[C@]1(O)C[C@H]2CN(CCc3c([nH]c4ccccc34)[C@@](C(=O)OC)(c3cc4c(cc3OC)N(C=O)[C@H]3[C@@](O)(C(=O)OC)[C@H](OC(C)=O)[C@]5(CC)C=CCN6CC[C@]43[C@@H]65)C2)C1 [Vincristine],,3,"Variation of γ-H2AX (γ-H2AX in HepG2 cells; human, 24 h): no variations of γ-H2AX"
CCC1=C[C@@H]2CN(C1)Cc1c([nH]c3ccccc13)[C@@](C(=O)OC)(c1cc3c(cc1OC)N(C)[C@H]1[C@@](O)(C(=O)OC)[C@H](OC(C)=O)[C@]4(CC)C=CCN5CC[C@]31[C@@H]54)C2 [Vinorelbine],,3.3,"Variation of γ-H2AX (γ-H2AX in HepG2 cells; human, 24 h): no variations of γ-H2AX"

# — paper PMC11219945, “Assessing genotoxic effects of chemotherapy agents by a robust in vitro assay based on mass spectrometric quantification of γ-H2AX in HepG2 cells” (Frontiers in Pharmacology, 2024)
